For series [1] the following is noted: cited from earlier work.
Series [2] in a line: Extraction of mono-n-octyltin trichloride from organic phase into aqueous hydrochloric acid phase, dependence on chloride concentration (Example 5). Type of series: physicochemical. The settings on record: stepwise dilution with deionized water. As to the method:
20.3 g of mono-n-octyltin trichloride, 3.9 g of di-n-butyl ether and 9.5 g of n-heptane were mixed to give of clear and homogeneous solution. 8.6 g (7.4 mL) of a 32% aqueous HCl solution were added. The mixture was stirred for ca. 10 minutes, and then transferred into a graduated glass cylinder. 2 phases appeared; they were allowed to settle.
Portions of deionized water were added stepwise to the system, and the volume changes of organic and aqueous phases were noted. Volume decrease of the organic phase indicates extraction of monooctyltin into the aqueous phase.

Series [3] in a line: Extraction of mono-n-octyltin trichloride from organic phase into aqueous aluminum chloride phase, dependence on chloride concentration (Example 4). Type of series: physicochemical. The conditions noted are these: stepwise dilution with deionized water. As to the method: A mixture was prepared, consisting by weight of 55.7% mono-n-octyltin trichloride, 10.7% di-n-butyl ether, 26.2% n-heptane, 7.3% AlCl3. 10 g of this mixture were transferred into a graduated glass cylinder.
Portions of deionized water were added stepwise to the system, and the volume changes of organic and aqueous phase were noted. Volume decrease of the organic phase indicates extraction of monooctyltin into the aqueous phase.

A short description of series [4]: Extraction of mono-n-octyltin trichloride into aqueous aluminum chloride phase, dependence on temperature (Example 6). Type of series: physicochemical. The settings on record: 30 minutes settling, 20 g mixture (18.5 mL) plus 8.4 g deionized water. The method, then: A mixture was prepared, consisting by weight of 55.7% mono-n-octyltin trichloride, 10.7% di-n-butyl ether, 26.2% n-heptane, 7.3% AlCl3. To 20 g of this mixture (having a volume of 18.5 mL), 8.4 g of deionized water were added under stirring, and the resulting mixture was placed into a graduated glass cylinder.
The temperature in the glass cylinder was adjusted to 20° C., and the phases were allowed to settle and separate for 30 minutes. The resulting volume of the organic phase was 8 mL.
Subsequently, the temperature in the glass cylinder was adjusted to 40° C., and the phases were allowed to settle and separate for 30 minutes. The resulting volume of the organic phase was 10 mL.
Subsequently, the temperature in the glass cylinder was adjusted to 60° C., and the phases were allowed to settle and separate for 30 minutes. The resulting volume of the organic phase was 14 mL.

The nature of series [5]: Extraction of mono-n-octyltin trichloride with aqueous sodium chloride phase (Example 7). Type of series: physicochemical. The settings on record: 16 mL organic mixture, 2.5 g saturated NaCl solution plus 5 g deionized water, 45° C. The method, then:
10.15 g of mono-n-octyltin trichloride, 1.95 g of di-n-butyl ether and 4.75 g of n-heptane were mixed to give of clear and homogeneous solution. […] 2.5 g of a saturated NaCl solution was were added. The mixture was stirred for ca. 10 minutes, and then transferred into a graduated glass cylinder. Phase separation could not be observed, because a suspension had formed. When further 5 g of deionized water were added and the mixture was heated to 45° C., 2 phases appeared. When they had settled, it became visible, that the volume of the organic phase was reduced from 16 mL to ca. 8 mL, indicating extraction of monooctyltin trichloride into the aqueous phase. Upon cooling to room temperature, the lower aqueous phase solidified.

Turning to `CCCCCCC[CH2][Sn]([Cl])([Cl])[CH2]CCCCCCC` [dioctyltin dichloride], the solubility in water entry in series [1] is listed as “practically insoluble”.
On to `CCCCCCC[CH2][Sn]([Cl])([Cl])[Cl]` [mono-n-octyltin trichloride], for which, in series [2], the “HCl concentration at which extraction becomes particularly efficient” value is “approx. 16%”. Moreover, the “aqueous aluminum chloride concentration at which extraction becomes particularly efficient” value in series [3] is on record as ≤ 17%. The figures for the “volume of the organic phase” value in series [4] (20° C.), in series [4] (40° C.) and in series [4] (60° C.) were 8 mL, 10 mL and 14 mL, respectively. Moreover, the solubility in water entry in series [1] is “practically insoluble”. In series [5], the “volume of the organic phase after extraction” value was “ca. 8 mL”.
On to `CCC[CH2][Sn]([Cl])([Cl])[Cl]` [monobutyltin trichloride], for which the solubility in water entry in series [1] is reported as “miscible”.
On to `CCCCCCC[CH2][Sn]([Cl])([CH2]CCCCCCC)[CH2]CCCCCCC` [trioctyltin chloride], for which, in series [1], the solubility in water result was “practically insoluble”.

The values are drawn from patent US10174060B2, “Process for purifying monooctylin trichloride” (CHEMTURA CORPORATION, priority 2014, dated 2019).
